Laboratory results taken from US10314819B2, “Solid state forms of Eluxadoline” (TEVA PHARMACEUTICALS INTERNATIONAL GMBH, priority 2015, dated 2019).
Read-outs that look alike come from different tables or passages of the source.

Key:
Format in all cases: physicochemical
[1] = % weight loss / water content (TGA, KF) after storage at various relative humidity; conditions: for % weight loss/water cont. - after 1 M, TGA: TGA up to 190° C.
Experimental: (§1) The obtained amorphous form was stored at various conditions, and the PXRD was analyzed after 3 and 7 days:
(§2) The obtained form alpha was stored at various conditions, and the PXRD was analyzed after 3 and 8 days:
(§3) The obtained amorphous form was stored at various conditions of relative humidity, and the PXRD was obtained after 1M (Table 4):
(§4) The obtained amorphous form was stored at various conditions, and the PXRD was obtained after 2M (Table 5):
(§5) XRPD pattern is shown in FIG. 16; SEM image is shown in FIG. 17; DSC thermogram is shown in FIG. 21 and TGA thermogram is shown in FIG. 22. The obtained form alpha was stored at various conditions, and the PXRD was obtained after 8, 14, and 21 days (Table 6): […]

[2] = Dissolution in 50 mM phosphate buffer pH = 7.4 at 37° C.; conditions: 50 mM phosphate buffer pH = 7.4, 37° C.
Experimental: Samples were prepared and analysed in duplicate. About 20 mg of each sample were weighed into 500 ml Erlenmeyer flask, 200 ml of 50 mM phosphate buffer pH=7.4, previously heated to 37° C. were added and flasks were shaken at 110 rpm for 60 minutes at 37±0.2° C. in an incubator shaker. 3 ml aliquots were taken at 5, 10, 20, 30, 45 and 60 min, filtered through 0.45 μm Chromafil Xtra RC 45/25 syringe filter and analysed by UV/VIS spectrometer (absorbance at 203 nm).
The measurement was performed using the following instruments: • pH/Ion meter PHM 240, MeterLab, Radiometer Analytical • Incubator shaker Innova 4080, New Brunswick Scientific, 19 mm diameter circular orbit • UV/VIS spectrometer Varian Cary 50 Bio, 1 mm quartz cell Results of Eluxadoline samples dissolution in 50 mM phosphate buffer pH=7.4 are summarized in Table 8 below: […]

[3] = Polymorph stability on storage at various relative humidity (PXRD)
Experimental: Sample after being powdered in a mortar and pestle is applied directly on a silicon plate holder. The X-ray powder diffraction pattern was measured with Philips X'Pert PRO X-ray powder diffractometer, equipped with Cu irradiation source=1.54184 Å(Ångström), X'Celerator (2.022° 2θ) detector. Scanning parameters: angle range: 3-40 deg., step size 0.0167, time per step 37 s, continuous scan.
as §1
The obtained pure amorphous form was stored at various conditions, and the PXRD was analyzed after 3 and 7 days:
as §2, §3, §4, §5

[4] = Thermal stability, heating in a vacuum dryer at 50° C. and 100° C. (XRPD, HPLC); conditions: for XRPD / HPLC/Area % (start: 99.88): vacuum dryer
Experimental: Samples of Eluxadoline alpha (5 g) were subjected to heating in a vacuum dryer at 50° C. and 100° C., for different periods of time.

[5] = Specific surface area (SSA), BET nitrogen
Experimental: Specific Surface Area (SSA) measurements (Bet Nitrogen) were determined using a Micromeritics ASAP 2000, specific surface area analyzer. Samples were subjected to the BET nitrogen adsorption analysis to determine the specific surface of the samples.
Sample tube: 10 cc bulb with ½″ stem
Sample mass: Approximately ½ full cell
Sample preparation: Degassing with nitrogen
Outgassing conditions: 40° C. (30 min)
Isothermal collection point: 20 adsorption points, in the range 0-1 P/P0
Isothermal data analysis range: 5 point BET in the range 0.05-0.20 P/P0
Equilibration interval: 5 s
Equilibration time out: 600 s

[6] = Flow function, FT4 Powder Rheometer, Freeman shear test 9 kPa; conditions: PSD/μm 10/60/164
Experimental: The Flow function was determined by using FT4 Powder Rheometer, Freeman FT4 instrument, and standard Freeman shear test—9 kPa (using small cell 1 ml), according to method below:
1. Compact to 9 kPa for 60 s
2. Pre shear hold 7 kPa for 16 s
3. Shear test at 7 kPa (Shear at 18°/min for 10°, auto detected peak torque yes)
4. Pre shear hold 6 kPa for 16 s
5. Shear test at 6 kPa (Shear at 18°/min for 10°, auto detected peak torque yes)
6. Pre shear hold 5 kPa for 16 s
7. Shear test at 5 kPa (Shear at 18°/min for 10°, auto detected peak torque yes)
8. Pre shear hold 4 kPa for 16 s
9. Shear test at 4 kPa (Shear at 18°/min for 10°, auto detected peak torque yes)
10. Pre shear hold 3 kPa for 16 s
11. Shear test at 3 kPa (Shear at 18°/min for 10°, auto detected peak torque yes)

[7] = Texture analysis / density at 0.2 MPa; conditions: 200 mg sample compressed in steel mould
Experimental: A simple and low sample consuming method for evaluation of the packing density of powders were obtained as compression profiles under low pressures using a die and a flat-faced punch fitted on a TA-XTplus Texture analyser (Stable Micro Systems Ltd., Godalming, UK). The small amount of 200 mg of sample is compressed in a steel mould (with the rate of displacement 0.03 mm/s). Also, a cyclic procedure (similar to tapping) was performed at maximal compressive displacement 0.5 mm, then retracting, relaxation for 15 s and then repeated compressive steps (altogether up to 20 steps).

COc1ccc(CN(C(=O)[C@@H](N)Cc2c(C)cc(C(N)=O)cc2C)[C@@H](C)c2nc(-c3ccccc3)c[nH]2)cc1C(=O)O [Example 20]
% weight loss/water cont. - after 1 M, TGA ([1]; 0% RH, 1 M): TGA-7.42%
% weight loss/water cont. - after 1 M, TGA ([1]; 20% RH, 1 M): TGA-8.42%
% weight loss/water cont. - after 1 M, TGA ([1]; 40% RH, 1 M): TGA-9.34%
% weight loss/water cont. - after 1 M, TGA ([1]; 60% RH, 1 M): TGA-10.36%
% weight loss/water cont. - after 1 M, TGA ([1]; 80% RH, 1 M): TGA-12.89%
% weight loss/water cont. - after 1 M, TGA ([1]; 100% RH, 1 M): TGA-15.23%
% weight loss/water cont. - after 1 M, TGA ([1]; As is): TGA-5.79%
% dissolved ([2]; 5 min): 63.21%
% dissolved ([2]; 10 min): 81.56%
% dissolved ([2]; 20 min): 91.46%
% dissolved ([2]; 30 min): 93.81%
% dissolved ([2]; 45 min): 94.48%
% dissolved ([2]; 60 min): 94.50%
PXRD results - after 1 M ([3]; 0% RH, 1 M): amorphous
PXRD results - after 1 M ([3]; 20% RH, 1 M): amorphous
PXRD results - after 1 M ([3]; 40% RH, 1 M): amorphous
PXRD results - after 1 M ([3]; 60% RH, 1 M): amorphous
PXRD results - after 1 M ([3]; 80% RH, 1 M): amorphous
PXRD results - after 1 M ([3]; 100% RH, 1 M): amorphous
PXRD results - after 1 M ([3]; As is): amorphous

COc1ccc(CN(C(=O)[C@@H](N)Cc2c(C)cc(C(N)=O)cc2C)[C@@H](C)c2nc(-c3ccccc3)c[nH]2)cc1C(=O)O [Example 10, Eluxadoline]
% weight loss/water cont. - after 7 days, TGA ([1]; 0% RH, 7 days): TGA-7.96%
% weight loss/water cont. - after 7 days, KF ([1]; 20% RH, 7 days): 9.01%
% weight loss/water cont. - after 7 days, TGA ([1]; 20% RH, 7 days): 7.96%
% weight loss/water cont. - after 7 days, KF ([1]; 40% RH, 7 days): 9.11%
% weight loss/water cont. - after 7 days, TGA ([1]; 40% RH, 7 days): 8.15%
% weight loss/water cont. - after 7 days, KF ([1]; 60% RH, 7 days): 9.91%
% weight loss/water cont. - after 7 days, TGA ([1]; 60% RH, 7 days): 8.88%
% weight loss/water cont. - after 7 days, KF ([1]; 80% RH, 7 days): 13.30%
% weight loss/water cont. - after 7 days, TGA ([1]; 80% RH, 7 days): 11.88%
% weight loss/water cont. - after 7 days, KF ([1]; 100% RH, 7 days): 15.69%
% weight loss/water cont. - after 7 days, TGA ([1]; 100% RH, 7 days): 15.03%
% weight loss/water cont. - after 7 days, TGA ([1]; As is): TGA-5.97%
PXRD results - after 7 days ([3]; 0% RH, 7 days): amorphous
PXRD results - after 7 days ([3]; 20% RH, 7 days): amorphous
PXRD results - after 7 days ([3]; 40% RH, 7 days): amorphous
PXRD results - after 7 days ([3]; 60% RH, 7 days): amorphous
PXRD results - after 7 days ([3]; 80% RH, 7 days): amorphous
PXRD results - after 7 days ([3]; 100% RH, 7 days): amorphous
PXRD results - after 7 days ([3]; As is): amorphous

COc1ccc(CN(C(=O)[C@@H](N)Cc2c(C)cc(C(N)=O)cc2C)[C@@H](C)c2nc(-c3ccccc3)c[nH]2)cc1C(=O)O [Example 12, 5-(((S)-2-amino-3-(4-carbamoyl-2,6-dimethylphenyl)-N—((S)-1-(4-phenyl-1H-imidazol-2-yl)ethyl)propanamido)methyl)-2-methoxybenzoic acid]
% weight loss after 8 days by TGA ([1]; as is, TGA up to 121° C.): TGA* = 1.29%
PXRD results after 8 days ([3]; 0% RH): alpha
PXRD results after 8 days ([3]; 20% RH): alpha
PXRD results after 8 days ([3]; 40% RH): alpha
PXRD results after 8 days ([3]; 60% RH): alpha
PXRD results after 8 days ([3]; 80% RH): alpha

COc1ccc(CN(C(=O)[C@@H](N)Cc2c(C)cc(C(N)=O)cc2C)[C@@H](C)c2nc(-c3ccccc3)c[nH]2)cc1C(=O)O [Example 11, Eluxadoline]
PXRD results after 7 days ([3]; 0% RH, 7 days): amorphous
PXRD results after 7 days ([3]; 20% RH, 7 days): amorphous
PXRD results after 7 days ([3]; 40% RH, 7 days): amorphous
PXRD results after 7 days ([3]; 60% RH, 7 days): amorphous
PXRD results after 7 days ([3]; 80% RH, 7 days): amorphous
PXRD results after 7 days ([3]; 100% RH, 7 days): amorphous

COc1ccc(CN(C(=O)[C@@H](N)Cc2c(C)cc(C(N)=O)cc2C)[C@@H](C)c2nc(-c3ccccc3)c[nH]2)cc1C(=O)O [Eluxadoline alpha form, Eluxadoline]
XRPD ([4]; 50 ° C., 1 h): alpha
XRPD ([4]; 50 ° C., 2 h): alpha
XRPD ([4]; 50 ° C., 3 h): alpha
HPLC/Area % (start: 99.88) ([4]; 50 ° C., 3 h): 99.91 Area %
XRPD ([4]; 100 ° C., 1 h): alpha
XRPD ([4]; 100 ° C., 2 h): alpha
XRPD ([4]; 100 ° C., 3 h): alpha
HPLC/Area % (start: 99.88) ([4]; 100 ° C., 3 h): 99.91 Area %
stability by XRPD and HPLC on heating ([4]; vacuum dryer at 50° C. and 100° C., different periods of time): stable
SSA ([5]; listed as Eluxadoline form alpha): about 9.63 m^2/g

COc1ccc(CN(C(=O)[C@@H](N)Cc2c(C)cc(C(N)=O)cc2C)[C@@H](C)c2nc(-c3ccccc3)c[nH]2)cc1C(=O)O [Example 21]
% weight loss/water cont. after 2 M KF ([1]; 0% RH, 2 M): 8.56%
% weight loss/water cont. after 2 M KF ([1]; 20% RH, 2 M): 9.17%
% weight loss/water cont. after 2 M KF ([1]; 40% RH, 2 M): 10.50%
% weight loss/water cont. after 2 M KF ([1]; 60% RH, 2 M): 11.93%
% weight loss/water cont. after 2 M KF ([1]; 80% RH, 2 M): 14.15%
% weight loss/water cont. after 2 M KF ([1]; 100% RH, 2 M): 14.54%
% weight loss/water cont. after 2 M KF ([1]; As is): 4.42%
Classification of powder flowability after Jenike [6]: Free-flowing (10 < FF)
Flow Function, (FF) ([6]; shear test 9 kPa): 10.08
PXRD results - after 2 M ([3]; 0% RH, 2 M): amorphous
PXRD results - after 2 M ([3]; 20% RH, 2 M): amorphous
PXRD results - after 2 M ([3]; 40% RH, 2 M): amorphous
PXRD results - after 2 M ([3]; 60% RH, 2 M): amorphous
PXRD results - after 2 M ([3]; 80% RH, 2 M): amorphous
PXRD results - after 2 M ([3]; 100% RH, 2 M): amorphous
PXRD results - after 2 M ([3]; As is): amorphous
SSA [5]: 1.243 m^2/g

COc1ccc(CN(C(=O)[C@@H](N)Cc2c(C)cc(C(N)=O)cc2C)[C@@H](C)c2nc(-c3ccccc3)c[nH]2)cc1C(=O)O [Eluxadoline alpha-lower particle size, Eluxadoline]
Density at 0.2 MPa [7]: 0.5190 mg/mm^3

COc1ccc(CN(C(=O)[C@@H](N)Cc2c(C)cc(C(N)=O)cc2C)[C@@H](C)c2nc(-c3ccccc3)c[nH]2)cc1C(=O)O [amorphous Eluxadoline, Eluxadoline]
changes of samples exposed to RH (stability of amorphous form) ([3]; RH 0-10% for a 7 day period): did not show any changes
